# Laboratory results: the NIST ThermoML archive (doi:10.1021/je050029o)
# Numbers after ± are expanded uncertainties.
# Details: 298.15 K; 101.33 kPa; Liquid; Pycnometric method
row,mass density,SMILES
1,765.2 ± 0.7 kg/m3,CC1CCCCC1 [methylcyclohexane]
2,740.6 ± 1.7 kg/m3,COC(C)(C)C [2-methoxy-2-methylpropane]
3,786.8 ± 0.7 kg/m3,CO [methanol]
4,679.5 ± 0.6 kg/m3,CCCCCCC [heptane]
